Patent US10544154B2, “Opioid receptor antagonist prodrugs” (Nirsum Laboratories, Inc., priority 2017, dated 2020)
In brackets after ≈: the same amount, converted by molar mass.

Experiments:
[1] = oral dosing; cited from earlier work
[2] = Plasma stability, rat plasma (HPLC-MS); type: in vitro ADME; settings: 10 μM, 37° C.
Method: (§1) Plasma stability determination of the test compounds in rat, dog, cynomolgus monkey and human plasma is performed using HPLC-MS. For rat, incubations are carried out in 96-well polypropylene plates in 5 aliquots of 70 μL each (one for each time point). […] Five time points are analyzed (0, 15, 120, 480 and 1440 min). For dog, monkey and human, test compounds (2 μM, final solvent concentration 1%) were also incubated at 37° C. and analyzed at five time points (0, 10, 30, 60 and 120 min). All incubations are performed in duplicates. The samples are analyzed by HPLC-MS. The percentage of parent compound remaining after incubation in plasma is determined.

[3] = Plasma stability, dog plasma (HPLC-MS); type: in vitro ADME; settings: 2 μM, 37° C.
Method: as §1

[4] = Plasma stability, human plasma (HPLC-MS); type: in vitro ADME; settings: 2 μM, 37° C.
Method: as §1, with “For dog, monkey and human, test compounds (2 μM, final solvent concentration 1%) were also incubated at 37° C. and analyzed at five time points (0, 10, 30, 60 and 120 min).” left out

[5] = Plasma stability, cynomolgus monkey plasma (HPLC-MS); type: in vitro ADME; settings: 2 μM, 37° C., 0 min
Method: as §1, with “For dog, monkey and human, test compounds (2 μM, final solvent concentration 1%) were also incubated at 37° C. and analyzed at five time points (0, 10, 30, 60 and 120 min).” left out

[6] = Liver S9 fraction stability, human; type: in vitro ADME; settings: 2 μM, 1.0 mg/ml S9 protein, 37° C.
Method: (§2) Liver S9 fraction stability determination of the test compounds in dog, cynomolgus monkey and human is performed using HPLC-MS. Test compound (2 μM, 0.1% DMSO, 1% Methanol final concentration) was assessed for stability in a 50 μl phosphate buffer containing 1.0 mg/ml S9 protein from each of the three species and 5 mM D-saccharic acid-1, 4-lactone. Samples were incubated at 37° C. for 60 minutes and the % compound remaining was assessed.

[7] = Liver S9 fraction stability, cynomolgus monkey; type: in vitro ADME; settings: 2 μM, 1.0 mg/ml S9 protein, 37° C.
Method: as §2

[8] = Clinical observations for dogs in pharmacokinetic studies; type: in vivo, Beagle dogs; settings: right leg test article
Method: Weight monitoring was done every week.
The dose formulation (concentration—400 mg base equivalents/ml in sesame oil+1% benzyl alcohol, unless otherwise specified) was administered via deep intramuscularly (unless otherwise specified). The injection vehicle was also dosed via deep intramuscular route (unless otherwise specified) on contralateral site of each animal at study initiation. The animals were sedated with Propofol at 6 mg/kg via IV administration. Following sedation hair was carefully removed from around the injection site and the area gently cleaned. Care will be taken to avoid irritating skin during shaving and cleaning the injection site. Then dogs will be dosed with deep IM administration. At least 2.5 cm depth from the surface into the central aspect of the quadriceps or biceps femoris muscle, by angling the needle toward the femur. If the needle hits the femur, simply draws back slightly and then inject. The dose volume will be determined by the animals' body weight collected on the morning of dosing day. For repeated administration, the injection sites may be rotated to minimize tissue injury.

[9] = Equilibrium solubility in water (Table 10); settings: for solubility thermodynamic: water, 40 °C, thermodynamic from solid
[10] = Solubility determination in oil (cottonseed oil, sesame oil), HPLC; settings: Heating Temp. 60 °C, Obs. Temp. 25 °C
Method: A known amount of test substance (˜40 mg) was weighed into the vial, 100 μL of oil was added and heated to 60° C. and then system was slurried to reach equilibrium. […] Then the clear solution was placed at room temperature (25° C.) for 24 h to confirm whether there was solid precipitation. Extra oil was added into the vial once compound precipitated out and then the system was re-equilibrated at 1000 rpm at room temperature (25° C.). Final concentration was determined by HPLC method as described below in Table 6a and 6b.

[11] = Rat pharmacokinetic studies, intramuscular administration; type: in vivo, male Sprague Dawley Rats; settings: rat IM 0.80 mg/kg, saline
Method: The purpose of this study is to determine the pharmacokinetics of test compounds in plasma, following intramuscular administration to male Sprague Dawley Rats (n=3, unless otherwise specified).
The dose formulation of 400 mg base equivalents/ml in sesame oil+1% benzyl alcohol (unless otherwise specified) was administered by intramuscular injection. The dose volume was determined by the animals' body weight determined on the morning of dosing day.
Each collected blood sample was centrifuged for 4 minutes at 4° C. and 10000 rpm for plasma collection. Plasma was collected and transferred into a pre-labeled PP tube in dry ice at each time point and precipitated immediately using ACN at a ratio of 1:4 (plasma:ACN). Centrifuged again (10 minutes, 12000 rpm) and obtain the supernatant.
LC-MS/MS methods for the quantitative determination of test compound in biological matrix were developed. […] The sample analysis was performed concurrently with a set of calibration standards and two sets of QC samples using the LC-MS/MS method.
Plasma concentration versus time data was analyzed by non-compartmental approaches using the Phoenix WinNonlin 6.3 software program. Cmax, Tmax, T1/2, AUC(0-t), AUC(0-inf), MRT(0-t), MRT(0-inf) and graphs of plasma concentration versus time profile were prepared.

Structure (SMILES)	% remaining at time point in minutes, 0 min [2] [%]	% remaining at time point in minutes, 15 min [2] [%]	% remaining at time point in minutes, 1440 min [2] [%]	% remaining at time point in minutes, 0 min [3] [%]	% remaining at time point in minutes, 0 min [4] [%]	% remaining at time point in minutes, 0 min [5] [%]	% remaining at time point in minutes, 480 min [2] [%]	further results
Oc1ccc2c3c1O[C@H]1[C@H](O)CC[C@@]4(O)[C@@H](C2)N(CC2CC2)CC[C@]314 [6-β-naltrexol]	–	–	–	–	–	–	–	mean elimination half-life [1]: thirteen
CCCCCCCCCCCC(=O)OCN1C(=O)CCc2ccc(OCCCCN3CCN(c4cccc(Cl)c4Cl)CC3)cc21 [Aripiprazole Lauroxil, reference compound]	100	84	46	100	100	100	–	% remaining at time point in minutes, 120 min ([4]; 120 min): 80%
C=C1CC[C@@]2(O)C3Cc4ccc(OC(=O)OCCCCCCCCCCCC)c5c4[C@@]2(CCN3CC2CC2)[C@H]1O5 [Compound 6, (4aS,7aS,12bS)-3-(cyclopropylmethyl)-4a-hydroxy-7-methylene-2,3,4,4a,5,6,7,7a-octahydro-1H-4,12-methanobenzofuro[3,2-e]isoquinolin-9-yl dodecyl carbonate]	100	–	1.6	100	100	100	4	% remaining at time point in minutes, 120 min [2]: 7.6%; Liver S9 Fraction Stability, % remaining at 60 minutes, Human [6]: 5.3%; Liver S9 Fraction Stability, % remaining at 60 minutes, Monkey [7]: 0%
C=C1CC[C@@]2(O)C3Cc4ccc(OC(=O)CCCCCCC/C=C/CCCCCCCC)c5c4[C@@]2(CCN3CC2CC2)[C@H]1O5 [Compound 15, (4aS,7aS,12bS)-3-(cyclopropylmethyl)-4a-hydroxy-7-methylene-2,3,4,4a,5,6,7,7a-octahydro-1H-4,12-methanobenzofuro[3,2-e]isoquinolin-9-yl (E)-octadec-9-enoate]	100	72	35	100	100	100	52	% remaining at time point in minutes, 1440 min ([4]; 1440 min): 109.6%; Clinical observations, R-TA ([8]; 48 mg/kg, Day 35, dogs D1001, D1002, D1003): rashes subside on the leg; Clinical observations, R-TA ([8]; Day 7, dogs D1501, D1502, D1503, dose not given): Swelling 8 * 4 cm
C=C1CC[C@@]2(O)C3Cc4ccc(OC(=O)CCCCCCCCCCCCCCC)c5c4[C@@]2(CCN3CC2CC2)[C@H]1O5 [Compound 56, (4aS,7aS,12bS)-3-(cyclopropylmethyl)-4a-hydroxy-7-methylene-2,3,4,4a,5,6,7,7a-octahydro-1H-4,12-methanobenzofuro[3,2-e]isoquinolin-9-yl palmitate, reference compound]	100	–	–	–	–	–	–	solubility thermodynamic [9]: 6.6 µg/mL (≈ 11.4 µM)
C=C1CC[C@@]2(O)C3Cc4ccc(OC(=O)CCCCCCCCCCC)c5c4[C@@]2(CCN3CC2CC2)[C@H]1O5 [Compound 59, (4aS,7aS,12bS)-3-(cyclopropylmethyl)-4a-hydroxy-7-methylene-2,3,4,4a,5,6,7,7a-octahydro-1H-4,12-methanobenzofuro[3,2-e]isoquinolin-9-yl dodecanoate, reference compound]	100	5.9	0	–	–	–	0.2	% remaining at time point in minutes, 120 min [2]: 0.7%; Equilibrium solubility Water ([9]; Heating Temp. 40 °C, Obs. Temp. 40 °C): <1 µg/mL; Approximate Solubility in Excipient: Cottonseed oil [10]: >414000 µg/mL; Approximate Solubility in Excipient: Sesame oil [10]: >393300 µg/mL
C=C1CC[C@@]2(O)[C@H]3Cc4ccc(O)c5c4[C@@]2(CCN3CC2CC2)[C@H]1O5.Cl [Nalmefene HCl-IR]	–	–	–	–	–	–	–	AUC0-inf (ng · h/mL) nalmefene [11]: 66.0 ng·h/mL; Terminal Half-life t1/2 (hour) nalmefene [11]: 0.87 h
C=C1CC[C@@]2(O)[C@H]3Cc4ccc(O)c5c4[C@@]2(CCN3CC2CC2)[C@H]1O5 [nalmefene, 17-cyclopropylmethyl-4,5α-epoxy-6-methylenemorphinan-3,14-diol]	–	–	–	–	–	–	–	solubility thermodynamic [9]: 25 µg/mL (≈ 73.7 µM)
